Patent publication US7999137B2, “Pesticide bi-phenyl-amidine derivatives” (Bayer Cropscience AG, priority 2006, dated 2011)

Test: logP by HPLC on reversed-phase column (C 18), EEC Directive 79/831 Annex V.A8
Format: physicochemical
Conditions: HPLC reversed-phase C 18; 40° C.; 0.1% aqueous formic acid and acetonitrile, linear gradient 10% to 90% acetonitrile
Protocol: Temperature: 40° C.; Mobile phases: 0.1% aqueous formic acid and acetonitrile; linear gradient from 10% acetonitrile to 90% acetonitrile.
Calibration was carried out using unbranched alkan-2-ones (comprising 3 to 16 carbon atoms) with known logP values (determination of the logP values by the retention times using linear interpolation between two successive alkanones).
In the case of `CCN(C)C=Nc1ccc(-c2ccc(F)c(C)c2)cc1Cl` [Compound 67], the “log p (HCOOH)” value is reported as 2.10. In the case of `CCN(C)C=Nc1cc(C)c(-c2ccc(C#N)cc2)cc1C` [Compound 136], the “log p (HCOOH)” value is reported as 1.54. In the case of `CCCN(C)C=Nc1cc(C)c(-c2ccc(C)c(Cl)c2)cc1C` [Compound 147], the “log p (HCOOH)” value is reported as 2.56. In the case of `CCN(C)C=Nc1ccc(-c2ccc(Cl)c(C(F)(F)F)c2)cc1C` [Compound 16], the “log p (HCOOH)” value is reported as 2.28. With `CCc1cc(-c2ccc(C=NOC)cc2)ccc1N=CN(C)CC` [Compound 51] the “log p (HCOOH)” value was 2.09. With `Cc1cc(-c2ccc(F)cc2)c(C)cc1N=C1NCCN1` [Compound 124] the “log p (HCOOH)” value was 1.72. With `CCN(C)C=Nc1ccc(-c2ccc(Cl)c(Cl)c2)cc1C(F)(F)F` [Compound 81] the “log p (HCOOH)” value was 2.57. With `CCN(C)C=Nc1ccc(-c2ccc(C(F)(F)F)cc2)cc1C(F)(F)F` [Compound 25] the “log p (HCOOH)” value was 2.54. For `CCN(C)C=Nc1ccc(-c2ccc(F)c(F)c2)cc1Cl` [Compound 68], the “log p (HCOOH)” value was 1.83. For `CCN(C)C=Nc1ccc(-c2ccc(C(C)=NOC)cc2)cc1C` [Compound 31], the “log p (HCOOH)” value was 2.02. In the case of `CCN(C)C=Nc1cc(C)c(-c2ccc(OC)c(C)c2)cc1C` [Compound 114], the “log p (HCOOH)” value is reported as 2.05. In the case of `CCc1cc(-c2ccc(F)c(F)c2)ccc1N=CN(C)CC` [Compound 56], the “log p (HCOOH)” value is reported as 2.00. In the case of `Cc1cc(-c2ccc(F)cc2)c(C)cc1N=C1NCCCN1` [Compound 123], the “log p (HCOOH)” value is reported as 1.81. For `CCN(C)C=Nc1cc(C)c(-c2ccc(Cl)cc2C)cc1C` [Compound 112], the “log p (HCOOH)” value was 2.24. For `CCN(C)C=Nc1ccc(-c2ccc(C(C)=NOC)cc2)cc1C(F)(F)F` [Compound 78], the “log p (HCOOH)” value was 2.24. With `CCN(C)C=Nc1ccc(-c2ccc(OC)cc2)cc1F` [Compound 88] the “log p (HCOOH)” value was 1.59. With `Cc1cc(-c2ccc(C(C)(C)C)cc2)ccc1N=C1CCCCN1` [Compound 138] the “log p (HCOOH)” value was 2.45. In the case of `Cc1cc(-c2ccc([Si](C)(C)C)cc2)c(C)cc1N=CN1CCCCC1` [Compound 154], the “log p (HCOOH)” value is reported as 3.16. In the case of `CCN(C)C=Nc1cc(C)c(-c2ccc(S(=O)(=O)C(F)(F)F)cc2)cc1C` [Compound 174], the “log p (HCOOH)” value is reported as 2.21. In the case of `CCN(C)C=Nc1cc(OC)c(-c2ccc(C)cc2)cc1OC` [Compound 98], the “log p (HCOOH)” value is reported as 1.89. With `CCc1cc(-c2ccc(C(C)=NOC)cc2)ccc1N=CN(C)CC` [Compound 53] the “log p (HCOOH)” value was 2.19. In the case of `C=CCN(C)C=Nc1cc(C)c(-c2ccc(C(F)(F)F)c(Cl)c2)cc1C` [Compound 144], the “log p (HCOOH)” value is reported as 2.70. With `CCN(C)C=Nc1cc(C)c(-c2ccc(F)c(C)c2)cc1C` [Compound 45] the “log p (HCOOH)” value was 2.08. In the case of `CCc1cc(-c2ccc(C(F)(F)F)cc2)ccc1N=CN(C)CC` [Compound 27], the “log p (HCOOH)” value is reported as 2.20. For `CCN(C)C=Nc1cc(C#N)c(-c2ccc(C(C)(C)C)cc2)cc1C` [Compound 177], the “log p (HCOOH)” value was 2.21. For `COc1cc(-c2ccc(C)cc2)c(OC)cc1N=CN(C)C(C)C` [Compound 103], the “log p (HCOOH)” value was 2.01. With `CCN(C)C=Nc1cc(C)c(-c2ccc(C(F)(F)F)c(Cl)c2)cc1C` [Compound 142] the “log p (HCOOH)” value was 2.59. In the case of `CCN(C)C=Nc1ccc(-c2ccc(OC)c(OC)c2)cc1C` [Compound 38], the “log p (HCOOH)” value is reported as 1.49. With `CCN(C)C=Nc1ccc(-c2ccc(Cl)cc2C)cc1Cl` [Compound 113] the “log p (HCOOH)” value was 2.03. With `CCN(C)C=Nc1cc(C)c(-c2ccc(C(C)(CC)OC)cc2)cc1C` (stereo not drawn) [Compound 159] the “log p (HCOOH)” value was 2.38. With `Cc1ccc(-c2cc(C)c(N=CN3CCCC3)cc2C)cc1Cl` [Compound 150] the “log p (HCOOH)” value was 2.37. For `CCON=C(C)c1ccc(-c2cc(C)c(N=CN3CCCCC3)cc2C)cc1` [Compound 141], the “log p (HCOOH)” value was 2.22. For `CCN(C)C=Nc1ccc(-c2ccc(COC)cc2)cc1C(F)(F)F` [Compound 93], the “log p (HCOOH)” value was 1.76. For `CCN(C)C=Nc1cc(C)c(-c2ccc(OC(C)C)c(Cl)c2)cc1C` [Compound 171], the “log p (HCOOH)” value was 2.62. With `CCN(C)C=Nc1cc(C)c(-c2ccc(COC)cc2)cc1C` [Compound 49] the “log p (HCOOH)” value was 1.76. In the case of `Cc1cc(-c2ccc(C(C)(C)C)c(F)c2)c(C)cc1N=CN(C)C(C)C` [Compound 169], the “log p (HCOOH)” value is reported as 2.74. In the case of `Cc1cc(-c2ccc(C(C)(C)C)cc2)c(C)cc1N=CN1CCCCC1` [Compound 116], the “log p (HCOOH)” value is reported as 2.69. In the case of `CCN(C)C=Nc1ccc(-c2ccc(OC)cc2)cc1C(F)(F)F` [Compound 87], the “log p (HCOOH)” value is reported as 1.78. For `CCN(C)C=Nc1ccc(-c2ccc(OCc3ccccc3)cc2)cc1F` [Compound 92], the “log p (HCOOH)” value was 2.27. With `CCN(C)C=Nc1ccc(-c2ccc(F)c(F)c2)cc1C` [Compound 34] the “log p (HCOOH)” value was 1.89. With `CCN(C)C=Nc1cc(C)c(-c2ccc(F)c(F)c2F)cc1C` [Compound 43] the “log p (HCOOH)” value was 2.32. With `CCN(C)C=Nc1cc(C)c(-c2ccc(OC(C)(C)C)cc2)cc1C` [Compound 160] the “log p (HCOOH)” value was 2.28. In the case of `CCc1cc(-c2ccc(OC)cc2)ccc1N=CN(C)CC` [Compound 58], the “log p (HCOOH)” value is reported as 1.90. For `CCN(C)C=Nc1cc(C)c(-c2ccc(Cl)c(C)c2)cc1C` [Compound 109], the “log p (HCOOH)” value was 2.27. For `C=CCN(C)C=Nc1cc(C)c(-c2ccc(C)c(Cl)c2)cc1C` [Compound 148], the “log p (HCOOH)” value was 2.48. With `CCN(C)C=Nc1cc(OC)c(-c2ccc(OC)c(Cl)c2)cc1OC` [Compound 97] the “log p (HCOOH)” value was 1.83. With `CCN(C)C=Nc1cc(C)c(-c2ccc(C(C)C)cc2)cc1C` [Compound 155] the “log p (HCOOH)” value was 2.34. With `CCCN(C)C=Nc1cc(C)c(-c2ccc([Si](C)(C)C)cc2)cc1C` [Compound 152] the “log p (HCOOH)” value was 3.10. With `CCN(C)C=Nc1cc(C)c(-c2ccc(OCc3ccccc3)cc2)cc1C` [Compound 48] the “log p (HCOOH)” value was 2.55. For `CCN(C)C=Nc1cc(C)c(-c2ccc(S(=O)(=O)N(C)C)cc2)cc1C` [Compound 173], the “log p (HCOOH)” value was 1.76. In the case of `CCCN(C)C=Nc1cc(C)c(-c2ccc(C(F)(F)F)c(Cl)c2)cc1C` [Compound 143], the “log p (HCOOH)” value is reported as 2.69. With `CCN(C)C=Nc1ccc(-c2ccc(F)c(F)c2F)cc1C(F)(F)F` [Compound 79] the “log p (HCOOH)” value was 2.29. For `CCN(C)C=Nc1cc(C)c(-c2ccc(C3CCCC3)cc2)cc1C` [Compound 167], the “log p (HCOOH)” value was 2.94. In the case of `CCN(C)C=Nc1ccc(-c2ccc(OC)c(OC)c2)cc1C(F)(F)F` [Compound 94], the “log p (HCOOH)” value is reported as 1.71. For `CCN(C)C=Nc1ccc(-c2ccc(Cl)c(C)c2)cc1Cl` [Compound 110], the “log p (HCOOH)” value was 2.13. In the case of `Cc1cc(-c2ccc(C(C)(C)C)cc2)c(C)cc1N=CN1CCCC1` [Compound 119], the “log p (HCOOH)” value is reported as 2.79. For `CCN(C)C=Nc1cc(C)c(-c2cccc(C(C)C)c2)cc1C` [Compound 178], the “log p (HCOOH)” value was 2.42. With `CCc1cc(-c2ccc(OC)c(OC)c2)ccc1N=CN(C)CC` [Compound 62] the “log p (HCOOH)” value was 1.68. In the case of `CCc1cc(-c2ccc(Cl)c(C(F)(F)F)c2)ccc1N=CN(C)CC` [Compound 21], the “log p (HCOOH)” value is reported as 2.39. In the case of `CCN(C)C=Nc1ccc(-c2ccc(COC)cc2)cc1Cl` [Compound 73], the “log p (HCOOH)” value is reported as 1.65. With `CCc1cc(-c2cc(OC)c(OC)c(OC)c2)ccc1N=CN(C)CC` [Compound 50] the “log p (HCOOH)” value was 1.69. With `CCCN(C)C=Nc1cc(C)c(-c2ccc(C(C)C)cc2)cc1C` [Compound 156] the “log p (HCOOH)” value was 2.70. For `CCN(C)C=Nc1ccc(-c2ccc(F)c(F)c2)cc1C(F)(F)F` [Compound 83], the “log p (HCOOH)” value was 2.09. With `CCN(C)C=Nc1ccc(-c2ccc(F)c(Cl)c2)cc1C(F)(F)F` [Compound 4] the “log p (HCOOH)” value was 2.36. For `CCN(C)C=Nc1cc(C)c(-c2cc(OC)c(OC)c(OC)c2)cc1C` [Compound 39], the “log p (HCOOH)” value was 1.68. In the case of `CCc1cc(-c2ccc(OCc3ccccc3)cc2)ccc1N=CN(C)CC` [Compound 60], the “log p (HCOOH)” value is reported as 2.39. With `Cc1cc(-c2ccc(Cl)cc2)c(C)cc1N=C1NCCCN1` [Compound 122] the “log p (HCOOH)” value was 2.08. With `CCN(C)C=Nc1cc(C)c(-c2ccc(Cl)c(C(F)(F)F)c2)cc1Cl` [Compound 107] the “log p (HCOOH)” value was 2.30. For `CCN(C)C=Nc1cc(C)c(-c2ccc(C(C)(C)C)c(Br)c2)cc1C` [Compound 164], the “log p (HCOOH)” value was 3.13. In the case of `CCN(C)C=Nc1ccc(-c2ccc(C(C)(C)C)cc2)cc1C(F)(F)F` [Compound 2], the “log p (HCOOH)” value is reported as 2.83. With `CCN(C)C=Nc1cc(C)c(-c2ccc(C(C)=NOC)cc2)cc1C` [Compound 42] the “log p (HCOOH)” value was 2.24. For `CCN(C)C=Nc1cc(C)c(-c2cccc3ccccc23)cc1C` [Compound 135], the “log p (HCOOH)” value was 2.13. In the case of `CCc1cc(-c2ccc(F)c(C)c2)ccc1N=CN(C)CC` [Compound 55], the “log p (HCOOH)” value is reported as 1.98. For `CCN(C)C=Nc1ccc(-c2ccc(C(F)(F)F)cc2)cc1Cl` [Compound 24], the “log p (HCOOH)” value was 1.99. In the case of `CCN(C)C=Nc1ccc(-c2ccc(Br)cc2)cc1C(F)(F)F` [Compound 80], the “log p (HCOOH)” value is reported as 2.24. For `CCN(C)C=Nc1ccc(-c2ccc(C(C)(C)C)cc2)cc1Cl` [Compound 1], the “log p (HCOOH)” value was 2.44. In the case of `CCN(C)C=Nc1cc(C)c(-c2ccc(OC(C)C)cc2)cc1C` [Compound 170], the “log p (HCOOH)” value is reported as 2.18. In the case of `CCN(C)C=Nc1cc(C)c(-c2ccc(Br)cc2)cc1C` [Compound 175], the “log p (HCOOH)” value is reported as 2.20. With `CCN(C)C=Nc1cc(C)c(-c2ccc(F)cc2)cc1C` [Compound 22] the “log p (HCOOH)” value was 1.95. In the case of `CCN(C)C=Nc1ccc(-c2ccc(Oc3ccccc3)cc2)cc1Cl` [Compound 71], the “log p (HCOOH)” value is reported as 2.45. For `CCN(C)C(C)=Nc1cc(C)c(-c2ccc(C(C)(C)C)cc2)cc1C` [Compound 176], the “log p (HCOOH)” value was 2.77.

Same assay, conditions: reversed-phase HPLC column (C 18); HPLC reversed-phase C 18; 40° C.; 0.1% aqueous formic acid and acetonitrile, linear gradient 10% to 90% acetonitrile; read-out: log p (HCOOH)
`CCN(C)/C=N/c1cc(C)c(-c2ccc(C(C)(C)C)cc2)cc1C` [Compound 8, N′-(4′-tert-butyl-2,5-dimethylbiphenyl-4-yl)-N-ethyl-N-methylimidoformamide] gave a chromatographic logP of 2.67.

Same assay, conditions: reversed-phase HPLC column (C 18); pH 2.3; HPLC, 0.1% aqueous formic acid and acetonitrile, 40° C.; read-out: log P (pH 2.3)
Work on `Cc1cc(-c2ccc(C(C)(C)C)cc2)c(C)cc1N` [Intermediate (VII-1), 4′-tert-butyl-2,5-dimethylbiphenyl-4-amine] yielded a chromatographic logP of 3.65. With `CCN(C)/C=N/c1cc(C)c(-c2ccc(C(C)(C)C)cc2)cc1C` [Compound 8, N′-(4′-tert-butyl-2,5-dimethylbiphenyl-4-yl)-N-ethyl-N-methylimidoformamide] the chromatographic logP was 2.67.
